Assay results: patent publication US20020065314A1, “COMPOSITIONS AND METHOD FOR STIMULATING HAIR GROWTH” (priority 1995, published 2002)
“Also recorded” adds a separate entry of the source.

Experiments:
[1] = system: C57BL/KsJ db/+ and C57BL/KsJ db/db mice; assay: Dose of n-butyl cyanoacrylate and response of hair growth (macroscopic score); format: in vivo, mouse
Method: The effect of n-butyl cyanoacrylate concentration on stimulation of hair growth was investigated as follows. Five mice of each strains C57BL/KsJ db/+ and C57BL/KsJ db/db were shaved on the dorsum, treated with a single topical application of either undiluted Nexaband^R Liquid (containing about 10 mg of n-butyl cyanoacrylate per 10 μl), or Nexaband^R Liquid diluted to 50% or 25% with vegetable oil. Hair growth was macroscopically scored at 49, 61 and 86 days after treatment.

C57BL/KsJ db/+ mice = assay: Application to full-thickness incisional and excisional wounds; format: in vivo, mouse
Method: An incisional, full-thickness wound, about 2 cm long was made through the dorsal skin of five mice (strain C57BL/KsJ db/+). A single dose of about 10 mg of n-butyl cyanoacrylate (in 10 μl of Nexaband^R Liquid) was applied to the bottom of the wound, and the wound closed with two surgical clips. Control animals which received 10 μl of phosphate buffered saline (PBS: 0.144 g/l KH2PO4, 9.0 g/l NaCl, 0.795 g/l Na2HPO4.7H2O; pH 7.2) were processed identically. During the period of 1-90 days post application, the effect of n-butyl cyanoacrylate treatment was examined by macroscopic observation.
In a group of five C57BL/KsJ db/+ mice, a full-thickness excisional wound was made with a biopunch (6 mm diameter) on the dorsal skin. A single dose of 9 mg of n-butyl cyanoacrylate (in 10 μl of Nexaband^R Liquid) was applied to the bottom of the wound, and the wound was left open. Control animals which received 10 μl of PBS were treated identically.

[2] = system: C57BL/KsJ db/+ mice and 6 other strains of mice; assay: Single topical application to shaved dorsum of mice: cutaneous changes and hair growth; format: in vivo, mouse
From the text: The dorsal aspect of C57BL/KsJ db/+ female mice was shaved and a single topical dose of n-butyl cyanoacrylate (formulated as Nexaband^R Liquid) was applied. […] At this early stage some of these new aggregates form laminae and appear to constitute neo-angiogenesis. At day 1 post application, the gross appearance of inflammation was still apparent, and there was microscopic evidence for the formation of a lumen from an aggregate of cells in the subcutaneous layer. […] These changes were only observed in the treated area. […] Between eight and 12 days post application, hair follicles and new hair were present at the sites of application; the remainder of the shaved area remained hairless. Epidermal and dermal thickening and new hair follicle development in treated skin were pronounced until days 10-20 post application (FIGS. 3A-3B), at which time large mature hair follicles traversed the entire thickness of the dermis and subcutaneous layer (FIG. 3C). Hair follicle density reached a maximum level at about days 20-30 post application, at which time the epithelium and connective tissue elements began to return to their pre-treatment appearance (FIGS. 4A-4B).
At the gross level, the hair growth in the shaved treated area occurs at 8-12 days and reaches full length at about 14-20 days post treatment, however, the remainder of the shaved untreated area remains hairless and the hair follicles small (in telogen (resting) phase)(5A-5B). The response of hair growth to the n-butyl cyanoacrylate stimulus is very similar in 6 other strains of mice (C57BL/KsJ +/+, C57BL/KsJ db/db, Balb/cBYj +/+, Balb/cBYj nu/+, HRS/J hr/+, and RHJ/LeJ hr^rh-j/+) (FIGS. 6A-6C) and Sprague Dawley rats (FIGS. 7A-7B). The hair growth rate in the fastest growth period (at about 10-15 days post treatment) reaches 1 mm per day. This is entirely consistent with the microscopically observed stimulation of hair follicles following treatment.

TGF-β2,3 = assay: Immunohistochemistry of growth factors in treated skin; format: in vivo, mouse; settings: throughout the study period
Method: Forty stock female mice of strain C57BL/KsJ db/+ at eight weeks of age were treated with a single dose of n-butyl cyanoacrylate applied topically to the shaved dorsum. Animals were sacrificed at days 4, 6, 8, 10, 12, 14, 16, 18, 20, and 22 post-treatment, and skin samples were excised to yield an area of n-butyl cyanoacrylate treated skin together with a contiguous, adjacent sample of untreated skin. In preparation for immunohistochemistry, samples were washed in PBS, fixed in 10% formalin, and secondarily fixed in Bouin's solution prior to paraffin embedding. Multiple 4-5 μm sections were placed on slides pre-coated with 3-aminopropylethoxysilane.
The following primary antibodies were used: anti-TGF-β1 neutralizing antibody; anti-TGF-β2,3; and anti-EGF receptor.

[3] = system: skin of mice (C57BL/KsJ db/+ and C57BL/KsJ db/db); assay: Hair growth in organ culture of treated skin (ex vivo); set-up: species or system mouse
Method: The shaved dorsal skin of mice (C57BL/KsJ db/+ and C57BL/KsJ db/db) was treated with n-butyl cyanoacrylate by a single topical application at a dose of 10 mg cm^2. One hour later, the skin (0.5×1.0 cm) containing both treated and untreated areas was excised, rinsed in PBS, cultured in Dulbecco's Modified Eagle Medium (Gibco BRL, Gaithersburg, Md.) supplemented with 10% fetal bovine serum (HyClone Laboratories, Logan, Utah) at an atmosphere of […] and 5% CO2, 37° C. Hair growth was recorded by macroscopy.

[4] = system: C57BL/KsJ db/+ and C57BL/KsJ db/db mice; assay: Effect of isobutyl cyanoacrylate on hair growth, topical; format: in vivo, mouse; settings: C57BL/KsJ db/db, 10 μl cm^−2 topical
Method: The following experiment was performed to identify the effect of isobutyl cyanoacrylate, a structural analog of n-butyl cyanoacrylate, on hair growth. The shaved backs of C57BL/KsJ db/+ and C57BL/KsJ db/db mice were treated topically at a dose of 10 μl cm^−2 with either isobutyl cyanoacrylate (Sigma Chemical Co., St Louis, Mo.) or n-butyl cyanoacrylate.

[5] = 25%, C57BL/KsJ db/+, 49 days after treatment
[6] = 25%, C57BL/KsJ db/+, 61 days after treatment
[7] = 25%, C57BL/KsJ db/+, 86 days after treatment
[8] = 25%, C57BL/KsJ db/db, 49 days after treatment
[9] = 25%, C57BL/KsJ db/db, 61 days after treatment
[10] = 25%, C57BL/KsJ db/db, 86 days after treatment
[11] = 50%, C57BL/KsJ db/db, 49 days after treatment
[12] = 50%, C57BL/KsJ db/db, 61 days after treatment
[13] = 50%, C57BL/KsJ db/db, 86 days after treatment
[14] = C57BL/KsJ db/+, post application

## C=C(C#N)C(=O)OCCCC [n-butyl cyanoacrylate]
[1]; [5]
  Number of Animals Exhibiting Hair Growth, Score 0: 4
  Number of Animals Exhibiting Hair Growth, Score 1+: 1
[1]; [6]
  Number of Animals Exhibiting Hair Growth, Score 0: 2
  Number of Animals Exhibiting Hair Growth, Score 1+: 3
[1]; [7]
  Number of Animals Exhibiting Hair Growth, Score 0: 3
  Number of Animals Exhibiting Hair Growth, Score 1+: 2
[1]; [8]
  Number of Animals Exhibiting Hair Growth, Score 0: 2
  Number of Animals Exhibiting Hair Growth, Score 2+: 2
  Number of Animals Exhibiting Hair Growth, Score 3+: 1
[1]; [9]
  Number of Animals Exhibiting Hair Growth, Score 0: 2
  Number of Animals Exhibiting Hair Growth, Score 1+: 1
  Number of Animals Exhibiting Hair Growth, Score 2+: 1
  Number of Animals Exhibiting Hair Growth, Score 3+: 1
[1]; [10]
  Number of Animals Exhibiting Hair Growth, Score 2+: 3
  Number of Animals Exhibiting Hair Growth, Score 3+: 2
[1]; [11]
  Number of Animals Exhibiting Hair Growth, Score 2+: 2
  Number of Animals Exhibiting Hair Growth, Score 3+: 3
[1]; [12]
  Number of Animals Exhibiting Hair Growth, Score 2+: 1
  Number of Animals Exhibiting Hair Growth, Score 3+: 4
[1]; [13]
  Number of Animals Exhibiting Hair Growth, Score 2+: 2
  Number of Animals Exhibiting Hair Growth, Score 3+: 3
[1]; 100% (10 mg/10 μl), C57BL/KsJ db/+, 49 days after treatment
  Number of Animals Exhibiting Hair Growth, Score 3+: 5
[1]; 100% (10 mg/10 μl), C57BL/KsJ db/+, 61 days after treatment
  Number of Animals Exhibiting Hair Growth, Score 3+: 5
[1]; 100% (10 mg/10 μl), C57BL/KsJ db/+, 86 days after treatment
  Number of Animals Exhibiting Hair Growth, Score 3+: 5
[1]; 100% (10 mg/10 μl), C57BL/KsJ db/db, 49 days after treatment
  Number of Animals Exhibiting Hair Growth, Score 3+: 5
[1]; 100% (10 mg/10 μl), C57BL/KsJ db/db, 61 days after treatment
  Number of Animals Exhibiting Hair Growth, Score 3+: 5
[1]; 100% (10 mg/10 μl), C57BL/KsJ db/db, 86 days after treatment
  Number of Animals Exhibiting Hair Growth, Score 3+: 5
[1]; undiluted, 50%, 25%
  dose dependence of induced hair growth: dose-dependent
C57BL/KsJ db/+ mice; full thickness incisional or excisional wound
  microscopic examination of wound site: induced de novo hair follicle formation in the subcutaneous adipose layer, in the dermis, as well as in the wound site
C57BL/KsJ db/+ mice; incision wound, day 17 post treatment
  hair growth at wound (photograph): profound hair growth along the linear wound margin
C57BL/KsJ db/+ mice; incisional and excisional wounds
  hair growth at wound: stimulated hair growth along the wound margin
C57BL/KsJ db/+ mice; incisional wound, day 17 post treatment
  histology of wound site: development of many new hair follicles and little scar tissue in the wound site
[2]; 6 other strains of mice and Sprague Dawley rats
  response of hair growth compared with C57BL/KsJ db/+: very similar
[2]; Balb/cBYj nu/+, 19 days post application
  hair growth on dorsum (photograph): hair growth appears in a circle pattern
[2]; C57BL/KsJ db/+
  hair follicle number, maximum increase treated vs untreated areas: about 2 fold
[2]; C57BL/KsJ db/+, 16 days following application
  histology of treated skin: large mature hair follicles traversing the entire thickness of the skin
[2]; C57BL/KsJ db/+, 17 days post application
  hair growth on dorsum (photograph): triangle pattern of hair growth
[2]; C57BL/KsJ db/+, 19 days after topical treatment
  histology of treated skin vs adjacent untreated area: high concentration of large mature hair follicles
[2]; C57BL/KsJ db/+, 23 days after treatment
  scanning electron micrograph, treated vs adjacent untreated area: higher density of hairs and deeper hair roots in the treated area
[2]; C57BL/KsJ db/+, day 3 post application
  histology of treated skin: multilayered epidermis, thickened dermis, and epidermal peg elongation; also recorded: evidence of trichogenesis was clearly seen at the treatment site
[2]; C57BL/KsJ db/+, day 10 post application
  histology of treated skin: increase in the number of mature hair follicles; also recorded: new epithelial pegs had developed into mature hair follicles
[2]; C57BL/KsJ db/+, days 16-20 post treatment
  thickness of the dermis layer, increase treated vs untreated areas: 1.5 fold
[2]; C57BL/KsJ db/+, first day after treatment
  thickness of the dermis layer, treated vs untreated areas: about 1.3 fold
[2]; [14]
  time of maximum hair follicle density: 20 to 30 days
  time until which epidermal and dermal thickening and new hair follicle development were pronounced: 10 to 20 days
[2]; C57BL/KsJ db/+, post treatment
  time at which dermis returns to normal thickness: about 70 days
  time at which epidermis returns to normal thickness: about 40 days
  time at which hair reaches full length: 14 to 20 days
[2]; C57BL/KsJ db/+, topical
  thickness of the epidermis layer, maximum increase in treated areas vs maximum level in untreated areas: about 2 fold
[2]; C57BL/KsJ db/+, within six hours of application
  early change of treated skin: slight thickening of the treated skin
[2]; after treatment
  time at which new hair follicle formation occurs in treated area: 2 to 3 days
[2]; at about 10-15 days post treatment
  hair growth rate in the fastest growth period: 1 mm per day
[2]; diabetic C57BL/KsJ db/db, 27 days post application
  hair growth on dorsum (photograph): hair growth appears in a rectangle pattern
[2]; diabetic strain C57BL/KsJ db/db
  hair follicle number, maximum in treated vs untreated areas: about 4 fold
[2]; genetically healing-impaired diabetic mice, post treatment
  time hair regrowth in treated areas remains unchanged while shaved untreated areas are hairless: more than 216 days
[2]; mice, post treatment
  time over which no shedding of induced hair has been found: > 335 days
[2]; mouse, in vivo
  length of new hairs over those in adjacent untreated area: 1-2 mm
  localization of the hair growth response: completely localized to the area where the stimulator is applied
[2]; post treatment, single topical dose
  time at which hair growth occurs (is seen) in shaved treated area: 8 to 12 days
[2]; single application, area subsequently shaved three times at 20-day intervals
  hair regrowth after repeated shaving: the hair keeps regrowing in the treated areas
TGF-β2,3
  intensity of TGF-β2,3 stain in the epidermis: greater than that of TGF-β1
[3]; 14 days in organ culture after treatment
  hair growth in organ culture (photograph): hair growth is apparent in the treated area
[3]; organ culture, post treatment
  time to which hair growth lasted (end of the experiment): ≥ 25 days
[3]; organ culture, single topical application 10 mg cm^2 one hour before excision, post treatment
  time at which hair growth in the treated area was observed: 7 to 12 days
[4]
  Hair growth: 3+ (high hair regeneration with an area larger than 50% of the treated area)
